# Reference: US20240254138A1, “TRICYCLIC PYRIMIDINES AS CYCLIN-DEPENDENT KINASE 7 (CDK7) INHIBITORS” (JANSSEN PHARMACEUTICA NV, priority 2021, published 2024)
# Where two headings read alike, the source gives them in different places.
# Legend:
# [1] = tested on: RNA Polymerase II Serine 5 phosphorylation in A549 cells overexpressing CDK7-mutant (C312S); assay: Imaging-based cellular RNA PolII Ser5 phosphorylation assay in A549 cells overexpressing CDK7-mutant (C312S); assay type: cell-based, human; details: RNA PolII Ser5 phosphorylation, averaged over all measurements; for IC50: Homo sapiens, A549, A549 cells overexpressing CDK7-mutant (C312S), read-out: CDK7_A549 mutant hCDK7(pIC50) (converted); for CDK7_A549 mutant hCDK7(pIC50): A549 cells overexpressing CDK7-mutant (C312S)
# From the text: (§1) To evaluate inhibition of CDK7 kinase activity, a 384-well automated imaging assay was used. This assay detects Serine 5 phosphorylation on a unique heptapeptide sequence in the C-terminal domain of Rpb1 subunit of RNA polymerase II, the downstream substrate of CDK7. This heptapeptide sequence is repeated up to 52 times in the CTD of Rpb1.
# (§2) A549 adenocarcinoma human alveolar basal epithelial cells (ATCC, CCL-185), rabbit Phospho-Rpb1 CTD (Ser5) antibody (D9N51 (Cell Signaling Technology)), DMEM (Sigma), Fetal Bovine Serum (Biowest), L-glutamine (Sigma), Penicillin/Streptomycin (Life Technologies), Sodium Pyruvate (Sigma), Hepes (Sigma), poly-D-lysine coated μclear 384 black plates (Greiner), formaldehyde (PolySciences), D-PBS (Sigma), Methanol (Sigma), Alexa Fluor 488 goat anti rabbit IgG secondary antibody (Life Technologies), HCS CellMask™ Deep Red stain (Life Technologies), Hoechst 33258 (Invitrogen).
# (§3) RNA Polymerase II Serine 5 phosphorylation was detected using a specific rabbit Phospho-Rpb1 CTD (Ser5) antibody. A549 adenocarcinoma human alveolar basal epithelial cells were seeded in 20 μl medium (DMEM supplemented with 1% Fetal Bovine Serum (heat inactivated 30′ 56° C.), 2 mM L-glutamine, 50 U/ml penicillin 50 μg/ml streptomycin, 1 mM sodium pyruvate and 50 mM hepes) at 1000 cells/well and cultured in poly-D-lysine coated μclear 384 black plates for 20 hours at 37° C. and 5% CO2.
# (§4) After incubation cells were challenged with compound for 3 hours at 37° C. and 5% CO2. DMSO was used as high control and as low control 10 μM of the following reference compound was used:
# (§5) 40 nl of test compounds and controls were spotted in cell plates using Echo Liquid Handler (Echo 550, Labcyte). Incubation was followed by 20 minutes fixation with 20 μl 10% formaldehyde at room temperature. Medium/formaldehyde solution was removed, plates were washed 3 times with 30 μl D-PBS (w/o Ca^2+ and Ma^2+) and permeabilization was done by adding 20 μl ice cold methanol for 20 minutes. Cells were washed again 3 times with 30 μl D-PBS and 20 μl blocking buffer (25 ml fetal bovine serum in 500 ml D-PBS) was added for 1 hour.
# (§6) After removing blocking buffer 20 μl 1/1000 primary antibody rabbit Phospho-Rpb1 CTD (Ser5) antibody was added which binds to the phosphorylated Serine5 of the heptapeptide sequences in the CTD of Rpb1. Primary antibody was removed, and plates were washed 3 times with 30 μl D-PBS followed by addition of 20 μl 1/2000 Alexa Fluor 488 goat anti rabbit IgG secondary antibody for final detection of Phospho-Rpb1 CTD (Ser5) together with 1/5000 HCS CellMask™ Deep Red stain for membrane staining and 1/5000 Hoechst 33258 for nucleus staining. Last, plates were washed 2 times with 30 μl D-PBS and wells were filled with 40 μL D-PBS, plates were sealed (Thermowell sealing tape) and stored at 4° C. until reading. Plates were read with Opera Phenix (Perkin Elmer) with 10× air objective. Data were calculated and analyzed in Phaedra.
# (§7) IC50 values were calculated using the following formula: […]
# (§8) Average value of all HC's and all LC's are used for normalizations.
# (§9) A best-fit curve is fitted by a minimum sum of squares method to the plot of % Control vs. compound concentration. From this an IC50 value can be obtained. An estimate of the slope of the plot in terms of the Hill coefficient is also obtained.
# In parallel this assay was performed in A549 cells overexpressing CDK7-mutant (C312S) to evaluate the effect of the covalent bond on potency and to screen for potential off-target effects. Mutation of Cysteine to Serine (C312S), a less nucleophilic amino acid, prevents CDK7 inhibitors from covalently binding to CDK7 and from inhibiting CDK7 activity in an irreversible manner. A stably transduced A549 cell pool was generated that overexpresses CDK7 mutant (C312S), but also expresses endogenous CDK7-WT. Covalent binders targeting the cysteine at position 312 will show a shift in potency in A549 cells overexpressing mutant C312S CDK7.
# [2] = tested on: RNA Polymerase II Serine 5 phosphorylation (Rpb1 CTD, downstream substrate of CDK7) in A549 cells; assay: Imaging-based cellular RNA PolII Ser5 phosphorylation assay in A549 cells; assay type: cell-based, human; details: wild-type CDK7, RNA PolII Ser5 phosphorylation, averaged over all measurements; for IC50: Homo sapiens, A549, A549 cells, read-out: CDK7_A549 Wild-type CDK7 (pIC50) (converted); for CDK7_A549 Wild-type CDK7 (pIC50): A549 cells
# From the text: as §1, §2, §3, §4, §5, §6, §7, §8, §9
# [3] = target: CDK7/cyclinH/MAT1 trimeric complex (Homo sapiens, UniProt P50613); assay: In vitro CDK7 assay, potency of irreversible covalent inhibitors (kinact/KI), coupled PK/LDH ADP readout at 340 nm
# CDK7/cyclinH/MAT1 trimeric complex, sequence (P50613 whole entry): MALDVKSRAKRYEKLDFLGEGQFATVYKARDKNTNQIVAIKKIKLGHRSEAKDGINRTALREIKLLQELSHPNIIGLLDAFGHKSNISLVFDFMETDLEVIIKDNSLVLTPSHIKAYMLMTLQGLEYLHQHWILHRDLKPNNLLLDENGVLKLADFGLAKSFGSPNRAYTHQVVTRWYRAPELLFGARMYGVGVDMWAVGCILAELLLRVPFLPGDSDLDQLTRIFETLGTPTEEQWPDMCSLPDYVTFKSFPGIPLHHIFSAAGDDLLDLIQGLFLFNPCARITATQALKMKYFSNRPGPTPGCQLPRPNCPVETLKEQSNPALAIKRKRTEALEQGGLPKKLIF
# CDK7/cyclinH/MAT1 trimeric complex, sequence (P51946 whole entry partner): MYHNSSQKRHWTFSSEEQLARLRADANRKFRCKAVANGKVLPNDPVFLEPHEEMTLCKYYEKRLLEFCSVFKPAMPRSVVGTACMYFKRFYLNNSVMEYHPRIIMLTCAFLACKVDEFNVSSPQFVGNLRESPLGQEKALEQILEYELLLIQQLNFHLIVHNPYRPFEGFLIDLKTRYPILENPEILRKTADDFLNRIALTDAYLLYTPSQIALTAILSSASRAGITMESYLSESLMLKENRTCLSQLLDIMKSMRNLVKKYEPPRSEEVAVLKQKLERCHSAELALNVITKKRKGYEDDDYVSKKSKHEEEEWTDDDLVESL
# CDK7/cyclinH/MAT1 trimeric complex, sequence (P51948 whole entry partner): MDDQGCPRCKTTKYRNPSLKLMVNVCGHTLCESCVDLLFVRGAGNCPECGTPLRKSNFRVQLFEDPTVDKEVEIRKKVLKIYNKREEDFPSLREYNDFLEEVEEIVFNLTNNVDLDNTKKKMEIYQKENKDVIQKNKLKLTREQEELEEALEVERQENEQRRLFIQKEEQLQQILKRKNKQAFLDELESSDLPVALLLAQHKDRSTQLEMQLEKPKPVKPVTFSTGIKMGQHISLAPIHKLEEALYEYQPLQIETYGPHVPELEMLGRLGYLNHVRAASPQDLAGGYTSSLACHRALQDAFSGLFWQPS
# [4] = CDK7 (20 nM enz.) (KI, μM), 20 nM enzyme
# [5] = read-out: CDK7 (20 nM enz.) (kinact, s^−1), 20 nM enzyme
# [6] = read-out: CDK7 (20 nM enz.) (kinact/KI, M^−1*s^−1), 20 nM enzyme
# [7] = read-out: CDK7 (20 nM enz.) (kobs/[I], M^−1*s^−1), 20 nM enzyme
SMILES,IC50 [1] [nM],IC50 [2] [nM],"Ki [3, 4] [µM]","kinact [3, 5] [s⁻¹]","kinact/KI [3, 6] [M⁻¹ s⁻¹]",further results
C=CC(=O)N1CCC(N2CC(c3cc4c(cn3)OC(C)(C)c3c(-c5cnn(C)c5)ccnc3N4)C2)CC1 [Compound 320],> 10000,> 10000,,,,
C=CC(=O)N1CC(N2CCC(c3ccc4c(c3)Nc3nccc(N5CCOCC5)c3CO4)C(C)(C)C2)C1 (stereo not drawn) [Compound 41],,,,,,"Ki ([3]; CDK7 (KI(μM)), […], 1 mM ATP, room temperature, averaged values over all measurements): 0.083 µM; kinact ([3]; read-out: CDK7 (kinact, s^−1), kinact = maximal rate of inactivation, 1 mM ATP, room temperature, averaged values over all measurements): 8.37e-05 s⁻¹; kinact/KI ([3]; read-out: CDK7 (kinact/KI, M^−1*s^−1), potency of irreversible covalent inhibitors, 1 mM ATP, room temperature, averaged values over all measurements): 1010 M⁻¹ s⁻¹"
"CC#CC(=O)N1CC[C@@H](N2CC(c3cc4c(c(C)n3)O[C@@H](C)c3c(N5CCOCC5)ccnc3N4)C2)C1 (single isomer, unassigned) [Compound 515]",8910,~11.5,,,,
CC#CC(=O)N1CC(n2cc(-c3cc4c(c(C)n3)OCc3c(N5CCOCC5)ccnc3N4)cn2)C1 [Compound 346],> 10000,191,,,,
C=CC(=O)N1CC(N2CCC(c3cc(C)c4c(c3)Nc3nccc(N5CCOCC5)c3CO4)CC2)C1 [Compound 21],,,,,,CDK7_A549 mutant hCDK7(pIC50) [1]: <5; CDK7_A549 Wild-type CDK7 (pIC50) [2]: 7.34
C=CC(=O)N1CCC(n2ccc(-c3cc4c(c(C)n3)OCc3c(N5CCOCC5)ccnc3N4)cc2=O)CC1 [compound 419],,,0.273,3.95e-05,144,
"CC#CC(=O)N1CC(N2CCC(c3cc4c(c(C#N)n3)O[C@@H](C)c3c(N5CCOCC5)ccnc3N4)CC2)C1 (single isomer, unassigned) [Compound 485]",> 10000,120,,,,
"CC#CC(=O)N1CC(N2CCC(c3cc4c(c(C)n3)O[C@H](C)c3c(C5CCOCC5)ccnc3N4)CC2)C1 (single isomer, unassigned) [Compound 405]",> 10000,89.1,,,,
"CC#CC(=O)N1CC(N2CCC(c3cc4c(c(C)n3)O[C@@H](C)c3c(N5CCOCC5)ccnc3N4)CC2)C1 (single isomer, unassigned) [Compound 371]",> 10000,2190,,,,
"C=CC(=O)N1CC(N2CC(c3cc4c(c(C)n3)O[C@@H](C)c3c(N5CCOCC5)ccnc3N4)C2)C1 (single isomer, unassigned) [Compound 271]",> 10000,3160,,,,
"C=CC(=O)N1CC(N2CC(c3cc4c(cn3)O[C@@H](C)c3c(-c5cnn(C)c5)ccnc3N4)C2)C1 (single isomer, unassigned) [compound 300]",,,2.63,3.59e-05,13.7,
CC#CC(=O)N1CCC(n2cc(-c3cc(C)c4c(c3)Nc3nccc(N5CCOCC5)c3CO4)cn2)CC1 [Compound 381],6920,372,,,,
"CC#CC(=O)N1CCC(N2CC(c3cc4c(c(C#N)n3)O[C@@H](C)c3c(N5CCOCC5)ccnc3N4)C2)CC1 (single isomer, unassigned) [Compound 545]",2820,117,,,,
"CC#CC(=O)N1CC(N2CCC(c3cc4c(c(C)n3)O[C@H](C)c3c(N5CCOCC5)ccnc3N4)CC2)C1 (single isomer, unassigned) [Compound 524]",,,,,,CDK7_A549 mutant hCDK7(pIC50) [1]: <5; CDK7_A549 Wild-type CDK7 (pIC50) [2]: 5.03
"C=CC(=O)N1CC[C@@H](N2CC(c3cc4c(c(C)n3)OCc3c(N5CCOCC5)ccnc3N4)C2)C1 (single isomer, unassigned) [compound 179]",,,0.0606,5.08e-05,839,
C=CC(=O)N1CCC(N2CCC(c3cc4c(c(C)n3)OCc3c(N5CCOCC5)ccnc3N4)CC2)CC1 [compound 324],,,0.0237,5.03e-05,2120,
"C=CC(=O)N1CC(N2CCC(c3cc4c(cn3)O[C@H](C)c3c(N5CCOCC5)ccnc3N4)CC2)C1 (single isomer, unassigned) [compound 171]",,,0.0278,5.15e-05,1850,
"C#Cc1cc2c(cc1C1CCN(C3CN(C(=O)C=C)C3)CC1)Nc1nccc(N3CCOCC3)c1[C@H](C)O2 (single isomer, unassigned) [Compound 214]",,,,,,"kinact/KI [3, 7]: 417 M⁻¹ s⁻¹; CDK7_A549 mutant hCDK7(pIC50) [1]: <5"
C=CC(=O)N1CC(N2CCC(c3cc(C)c4c(c3)Nc3nccc(N5CCS(=O)(=O)CC5)c3CO4)CC2)C1 [Compound 75],,,,,,"kinact/KI [3, 7]: 1100 M⁻¹ s⁻¹"
C=CC(=O)N1CC(c2nc(C)c(-c3cc4c(c(C)n3)OCc3c(N5CCOCC5)ccnc3N4)c(C)n2)C1 [compound 277],,,0.156,4.48e-05,287,
"CC#CC(=O)N1CC(N2CC(c3cc4c(c(C)n3)O[C@H](C)c3c(N5CCOCC5)ccnc3N4)C2)C1 (single isomer, unassigned) [compound 444]",,,0.186,,,"CDK7 (20 nM enz.) (kinact, s^−1) ([3]; 20 nM enzyme): 4.506e-05 s⁻¹; CDK7 (20 nM enz.) (kinact/KI, M^−1*s^−1) ([3]; 20 nM enzyme): 242.644 M⁻¹ s⁻¹"
"C=CC(=O)N1CC[C@@H](N2CC(c3cc4c(c(C)n3)O[C@@H](C)c3c(-c5cnn(C)c5)ccnc3N4)C2)C1 (single isomer, unassigned) [compound 420]",,,7.92,4.55e-05,5.74,
"C=CC(=O)N1CC(N2CCC(c3ccc4c(c3)Nc3nccc(N5CCOCC5)c3[C@@H](C)O4)CC2)C1 (single isomer, unassigned) [compound 90]",,,,,,"kinact/KI [3, 7]: 1190 M⁻¹ s⁻¹"
"C=CC(=O)N1CC(N2CCC(c3cc4c(c(C)n3)O[C@H](C)c3c(C5CCOCC5)ccnc3N4)CC2)C1 (single isomer, unassigned) [compound 429]",,,0.0672,9.76e-05,1450,
C=CC(=O)N1CC(N2CC(c3cc4c(c(P(C)(C)=O)n3)OCc3c(N5CCOCC5)ccnc3N4)C2)C1 [compound 331],,,0.204,6.25e-05,306,
"C=CC(=O)N1CC(N2CCC(c3cc4c(cn3)O[C@@H](C)c3c(N5CCOCC5)ccnc3N4)CC2)C1 (single isomer, unassigned) [Compound 172]",,,1.4,5.53e-05,39.4,
"C=CC(=O)N1CC[C@H](N2CC(c3cc4c(c(C)n3)OCc3c(N5CCOCC5)ccnc3N4)C2)C1 (single isomer, unassigned) [compound 180]",,,0.0452,5.34e-05,1180,
C=CC(=O)N1CC(N2CCC(c3cc4c(c(C)n3)OCc3c(C5CCOCC5)ccnc3N4)CC2)C1 [compound 208],,,0.168,4.84e-05,287,
C#CCCN(C)C/C=C/C(=O)N1CC(N2CCC(c3cc(Cl)c4c(c3)Nc3nccc(C5CCOCC5)c3CO4)CC2)C1 [compound 249],,,,,,"kinact/KI [3, 7]: 1040 M⁻¹ s⁻¹"
